Read-outs that look alike come from different tables or passages of the source.
Legend:
Assay in all cases: Ras-Raf disruption / FRET / MOA assay (BRAF RBD)
Assay type in all cases: biochemical
[1] = molecular target: KRAS G12C (Homo sapiens, UniProt P01116+P62937, G12C); settings: with Cyclophilin A
Text: (§1) Disruption of […] Ras-binding Domain (BRAF^RBD) Interaction with K-Ras by Compounds of the Invention (also Called a FRET Assay or an MOA Assay)
(§2) Note—The following protocol describes a procedure for monitoring disruption of K-Ras G12C (GMP-PNP) binding to BRAF^RBD by a compound of the invention. This protocol may also be executed substituting other Ras proteins or nucleotides, such as K-Ras G12D and K-Ras G13D.
(§3) The purpose of this biochemical assay was to measure the ability of test compounds to facilitate ternary complex formation between a nucleotide-loaded K-Ras isoform and Cyclophilin A; the resulting ternary complex disrupts binding to a BRAF^RBD construct, inhibiting K-Ras signaling through a RAF effector. Data is reported as IC50 values.
(§4) In assay buffer containing 25 mM HEPES pH 7.3, 0.002% Tween20, 0.1% BSA, 100 mM NaCl and 5 mM MgCl2, tagless Cyclophilin A, His6-K-Ras-GMPPNP, and GST-BRAF^RBD were combined in a 384-well assay plate at final concentrations of 25 μM, 12.5 nM, and 50 nM, respectively. Compound was present in plate wells as a 10-point 3-fold dilution series starting at a final concentration of 30 μM. After incubation at 25° C. for 3 hours, a mixture of anti-His Eu-W1024 and anti-GST allophycocyanin was then added to assay sample wells at final concentrations of 10 nM and 50 nM, respectively, and the reaction incubated for an additional 1.5 hours. […] Compounds that facilitate disruption of a K-Ras:RAF complex were identified as those eliciting a decrease in the TR-FRET ratio relative to DMSO control wells.
as §3, with “is” for “was”, “Ras” for “K-Ras”, “cyclophilin” for “Cyclophilin”, “effector.” for “effector. Data is reported as IC50 values.”
In assay buffer containing 25 mM HEPES pH 7.3, 0.002% Tween20, 0.1% BSA, 100 mM NaCl and 5 mM MgCl2, tagless Cyclophilin A, His6-K-Ras-GMPPNP (or other Ras variant), and GST-BRAF^RBD are combined in a 384-well assay plate at final concentrations of 25 μM, 12.5 nM and 50 nM, respectively. Compound is present in plate wells as a 10-point 3-fold dilution series starting at a final concentration of 30 μM. After incubation at 25° C. for 3 hours, a mixture of Anti-His Eu-W1024 and anti-GST allophycocyanin is then added to assay sample wells at final concentrations of 10 nM and 50 nM, respectively, and the reaction incubated for an additional 1.5 hours. […] Compounds that facilitate disruption of a Ras:RAF complex are identified as those eliciting a decrease in the TR-FRET ratio relative to DMSO control wells.

[2] = molecular target: KRAS G12V (Homo sapiens, UniProt P01116+P62937, G12V); settings: with Cyclophilin A
Sequence of KRAS G12V (P01116 1-169 isoform P01116-2 G12V limits assumed): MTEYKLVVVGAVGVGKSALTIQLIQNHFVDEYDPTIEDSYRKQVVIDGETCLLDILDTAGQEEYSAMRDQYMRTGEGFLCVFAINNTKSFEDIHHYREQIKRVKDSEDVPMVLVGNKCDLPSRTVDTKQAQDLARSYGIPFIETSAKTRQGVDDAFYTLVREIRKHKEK
Sequence of KRAS G12V (P62937 whole entry): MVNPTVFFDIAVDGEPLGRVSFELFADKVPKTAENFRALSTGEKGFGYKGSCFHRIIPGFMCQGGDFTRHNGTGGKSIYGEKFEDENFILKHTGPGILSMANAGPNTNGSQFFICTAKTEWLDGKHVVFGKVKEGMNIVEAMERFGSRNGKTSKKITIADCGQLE
Text: as §1, §2, §3, §4

[3] = molecular target: NRAS G12C (Homo sapiens, UniProt P01111+P62937, G12C)
Sequence of NRAS G12C (P01111 whole entry G12C): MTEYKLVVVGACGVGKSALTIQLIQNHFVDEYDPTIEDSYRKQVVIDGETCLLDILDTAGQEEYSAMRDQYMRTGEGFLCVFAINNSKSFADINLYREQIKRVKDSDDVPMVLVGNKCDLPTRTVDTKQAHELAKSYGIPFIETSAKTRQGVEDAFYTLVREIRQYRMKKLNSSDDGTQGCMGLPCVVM
Sequence of NRAS G12C (P62937 whole entry): as the sequence (P62937 whole entry) above
Text: as §1, §2, §3, §4

[4] = molecular target: KRAS G13D (Homo sapiens, UniProt P01116+P62937, G13D); settings: with Cyclophilin A
Sequence of KRAS G13D (P01116 1-169 isoform P01116-2 G13D limits assumed): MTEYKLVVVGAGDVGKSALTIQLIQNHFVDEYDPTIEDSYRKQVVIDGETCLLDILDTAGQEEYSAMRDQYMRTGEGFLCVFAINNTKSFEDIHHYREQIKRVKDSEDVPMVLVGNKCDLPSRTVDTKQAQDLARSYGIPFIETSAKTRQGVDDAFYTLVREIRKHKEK
Sequence of KRAS G13D (P62937 whole entry): as the sequence (P62937 whole entry) above
Text: as §1, §2, §3, §4

[5] = molecular target: KRAS G12S (Homo sapiens, UniProt P01116+P62937, G12S); settings: with Cyclophilin A
Sequence of KRAS G12S (P01116 1-169 isoform P01116-2 G12S limits assumed): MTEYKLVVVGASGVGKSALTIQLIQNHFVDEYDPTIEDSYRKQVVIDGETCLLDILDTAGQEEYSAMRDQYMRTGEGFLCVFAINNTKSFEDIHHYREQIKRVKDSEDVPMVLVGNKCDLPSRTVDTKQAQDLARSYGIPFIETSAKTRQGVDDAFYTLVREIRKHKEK
Sequence of KRAS G12S (P62937 whole entry): as the sequence (P62937 whole entry) above
Text: as §1, §2, §3, §4

[6] = molecular target: KRAS WT (Homo sapiens, UniProt P01116+P62937); settings: with Cyclophilin A
Sequence of KRAS WT (P01116 1-169 isoform P01116-2 limits assumed): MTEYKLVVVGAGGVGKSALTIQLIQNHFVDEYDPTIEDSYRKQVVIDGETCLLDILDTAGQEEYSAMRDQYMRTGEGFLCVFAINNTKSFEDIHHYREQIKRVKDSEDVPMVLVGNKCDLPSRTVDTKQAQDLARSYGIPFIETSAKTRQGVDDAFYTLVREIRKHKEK
Sequence of KRAS WT (P62937 whole entry): as the sequence (P62937 whole entry) above
Text: as §1, §2, §3, §4

[7] = molecular target: KRAS G13C (Homo sapiens, UniProt P01116+P62937, G13C); settings: with Cyclophilin A
Sequence of KRAS G13C (P01116 1-169 isoform P01116-2 G13C limits assumed): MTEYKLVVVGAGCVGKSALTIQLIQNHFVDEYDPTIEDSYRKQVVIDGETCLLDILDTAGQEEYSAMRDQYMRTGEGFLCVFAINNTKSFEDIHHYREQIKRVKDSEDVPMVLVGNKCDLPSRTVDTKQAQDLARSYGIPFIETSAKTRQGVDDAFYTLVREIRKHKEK
Sequence of KRAS G13C (P62937 whole entry): as the sequence (P62937 whole entry) above
Text: as §1, §2, §3, §4

[8] = molecular target: KRAS G12D (Homo sapiens, UniProt P01116+P62937, G12D); settings: with Cyclophilin A
Sequence of KRAS G12D (P01116 1-169 isoform P01116-2 G12D limits assumed): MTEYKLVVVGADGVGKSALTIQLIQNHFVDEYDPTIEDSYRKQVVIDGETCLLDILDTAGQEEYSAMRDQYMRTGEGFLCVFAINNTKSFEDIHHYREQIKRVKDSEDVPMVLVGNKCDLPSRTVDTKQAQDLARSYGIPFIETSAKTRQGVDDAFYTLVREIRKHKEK
Sequence of KRAS G12D (P62937 whole entry): as the sequence (P62937 whole entry) above
Text: as §1, §2, §3, §4

[9] = Ras-Raf disruption, read-out: KRAS G12C FRET data IC50
[10] = Ras-Raf disruption, read-out: KRAS G12V FRET data IC50
[11] = NRAS G12C, read-out: NRAS G12C FRET data IC50
[12] = Ras-Raf disruption, read-out: KRAS G13D FRET data IC50
[13] = Ras-Raf disruption, read-out: KRAS G12S FRET data IC50
[14] = Ras-Raf disruption, read-out: KRAS WT FRET data IC50
[15] = Ras-Raf disruption, read-out: KRAS G13C FRET data IC50
[16] = Ras-Raf disruption, read-out: KRAS G12D FRET data IC50

Sequence of KRAS G12C (P01116 1-169 isoform P01116-2 G12C limits assumed): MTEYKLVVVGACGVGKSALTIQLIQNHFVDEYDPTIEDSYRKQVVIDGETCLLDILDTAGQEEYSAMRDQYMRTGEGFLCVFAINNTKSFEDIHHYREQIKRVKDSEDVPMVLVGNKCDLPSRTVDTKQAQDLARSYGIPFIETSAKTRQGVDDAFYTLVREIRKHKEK
Sequence of KRAS G12C (P62937 whole entry, the tested form may be a part): as the sequence (P62937 whole entry) above

Row | SMILES | IC50 [1, 9] | IC50 [2, 10] | IC50 [3, 11] | IC50 [4, 12] | IC50 [5, 13] | IC50 [6, 14] | IC50 [7, 15] | IC50 [8, 16] | IC50 ([1]; KRAS G12C FRET data IC50, Ras-Raf disruption) | IC50 ([2]; KRAS G12V FRET data IC50, Ras-Raf disruption) | IC50 ([3]; NRAS G12C FRET data IC50, NRAS G12C) | IC50 ([4]; KRAS G13D FRET data IC50, Ras-Raf disruption) | IC50 ([5]; KRAS G12S FRET data IC50, Ras-Raf disruption) | IC50 ([6]; KRAS WT FRET data IC50, Ras-Raf disruption) | IC50 ([7]; KRAS G13C FRET data IC50, Ras-Raf disruption) | IC50 ([8]; KRAS G12D FRET data IC50, Ras-Raf disruption)
1 | CCn1c(-c2cccnc2[C@H](C)OC)c2c3cc(ccc31)-c1cc(O)cc(c1)C[C@H](NC(=O)[C@H](C(C)C)N(C)C(=O)[C@@H]1CN1)C(=O)N1CCC[C@H](N1)C(=O)OCC(C)(C)C2 [Example 100] | 0.01 to 0.1 µM | 0.01 to 0.1 µM | 0.01 to 0.1 µM | 0.01 to 0.1 µM | 0.01 to 0.1 µM | 0.01 to 0.1 µM | 0.01 to 0.1 µM | 0.1 to 1 µM | – | – | – | – | – | – | – | –
2 | CCn1c(-c2cccnc2[C@H](C)OC)c2c3cc(ccc31)-c1cc(O)cc(c1)C[C@H](NC(=O)[C@H](C(C)C)N1CC[C@@H](NC(=O)[C@H]3CN3)C1=O)C(=O)N1CCC[C@H](N1)C(=O)OCC(C)(C)C2 [Example 130] | – | – | – | – | – | – | – | – | 0.01 to 0.1 µM | 0.1 to 1 µM | 0.01 to 0.1 µM | 0.01 to 0.1 µM | 0.01 to 0.1 µM | 0.01 to 0.1 µM | 0.01 to 0.1 µM | 0.1 to 1 µM
3 | CCn1c(-c2cccnc2[C@H](C)OC)c2c3cc(ccc31)-c1cc(O)cc(c1)C[C@H](NC(=O)[C@H](C(C)C)N(C)C(=O)C1CCN(C(=O)[C@@H]3CN3)CC1)C(=O)N1CCC[C@H](N1)C(=O)OCC(C)(C)C2 [Example 89] | 0.01 to 0.1 µM | 0.1 to 1 µM | 0.01 to 0.1 µM | 0.01 to 0.1 µM | 0.01 to 0.1 µM | 0.01 to 0.1 µM | < 0.01 µM | 0.1 to 1 µM | – | – | – | – | – | – | – | –
4 | CCn1c(-c2cccnc2[C@H](C)OC)c2c3cc(ccc31)-c1cc(O)cc(c1)C[C@H](NC(=O)[C@H](C(C)C)N(C)C(=O)[C@@]1(F)CCN(C(=O)[C@@H]3CN3)C1)C(=O)N1CCC[C@H](N1)C(=O)OCC(C)(C)C2 (atropisomer, axis not shown) [Example 185] | 0.01 to 0.1 µM | 0.1 to 1 µM | 0.01 to 0.1 µM | 0.1 to 1 µM | 0.1 to 1 µM | 0.1 to 1 µM | 0.01 to 0.1 µM | 0.1 to 1 µM | – | – | – | – | – | – | – | –
5 | CCn1c(-c2cccnc2[C@H](C)OC)c2c3cc(ccc31)-c1cccc(c1)C[C@H](NC(=O)[C@H](C(C)C)N(C)C(=O)[C@H]1C[C@H](N=C=Nc3c(C)cccc3C)C1)C(=O)N1CCC[C@H](N1)C(=O)OCC(C)(C)C2 [Example 126] | 0.1 to 1 µM | 1 to 10 µM | 0.1 to 1 µM | 1 to 10 µM | 0.1 to 1 µM | 1 to 10 µM | 0.1 to 1 µM | 1 to 10 µM | – | – | – | – | – | – | – | –
6 | CCn1c(-c2cccnc2[C@H](C)OC)c2c3cc(ccc31)-c1cc(O)cc(c1)C[C@H](NC(=O)[C@H](C(C)C)N(C)C(=O)CC1CN(C(=O)[C@@H]3CN3)C1)C(=O)N1CCC[C@H](N1)C(=O)OCC(C)(C)C2 [Example 178] | 0.01 to 0.1 µM | 0.1 to 1 µM | 0.01 to 0.1 µM | 0.1 to 1 µM | 0.1 to 1 µM | 0.1 to 1 µM | 0.01 to 0.1 µM | 0.1 to 1 µM | – | – | – | – | – | – | – | –
7 | CCn1c(-c2cccnc2[C@H](C)OC)c2c3cc(ccc31)-c1cc(O)cc(c1)C[C@H](NC(=O)[C@H](C(C)C)N(C)C(=O)N1CCCN(C(=O)[C@@H]3CN3)CC1)C(=O)N1CCC[C@H](N1)C(=O)OCC(C)(C)C2 [Example 173] | 0.01 to 0.1 µM | 0.01 to 0.1 µM | 0.01 to 0.1 µM | 0.01 to 0.1 µM | 0.01 to 0.1 µM | 0.01 to 0.1 µM | 0.01 to 0.1 µM | 0.01 to 0.1 µM | – | – | – | – | – | – | – | –
8 | CCn1c(-c2cccnc2[C@H](C)OC)c2c3cc(ccc31)-c1cc(O)cc(c1)C[C@H](NC(=O)[C@H](C(C)C)N(C)C(=O)N1CCN(C(=O)[C@H]3CN3)CC1)C(=O)N1CCC[C@H](N1)C(=O)OCC(C)(C)C2 [Example 177, 4-((R)-aziridine-2-carbonyl)-N-((2S)-1-(((6^3S,4S)-1^1-ethyl-2^5-hydroxy-1^2-(2-((S)-1-methoxyethyl)pyridin-3-yl)-10,10-dimethyl-5,7-dioxo-6^1,6^2,6^3,6^4,6^5,6^6-hexahydro-1^1H-8-oxa-1(5,3)-indola-6(1,3)-pyridazina-2(1,3)-benzenacycloundecaphane-4-yl)amino)-3-methyl-1-oxobutan-2-yl)-N-methylpiperazine-1-carboxamide] | 0.01 to 0.1 µM | 0.01 to 0.1 µM | 0.01 to 0.1 µM | 0.01 to 0.1 µM | 0.01 to 0.1 µM | 0.01 to 0.1 µM | 0.01 to 0.1 µM | 0.1 to 1 µM | – | – | – | – | – | – | – | –

— patent US20230233569A1 (Revolution Medicines, Inc., priority 2020, published 2023)
